Two compounds from publication PMC10051477, “5,8-Dimethyl-9H-carbazole Derivatives Blocking hTopo I Activity and Actin Dynamics” (Pharmaceuticals, 2023) can be followed below.

The target in one test is T1, hTopo I (Homo sapiens, UniProt P11387).
T1 construct: purchased TopoGEN
T1 sequence (P11387 1-765): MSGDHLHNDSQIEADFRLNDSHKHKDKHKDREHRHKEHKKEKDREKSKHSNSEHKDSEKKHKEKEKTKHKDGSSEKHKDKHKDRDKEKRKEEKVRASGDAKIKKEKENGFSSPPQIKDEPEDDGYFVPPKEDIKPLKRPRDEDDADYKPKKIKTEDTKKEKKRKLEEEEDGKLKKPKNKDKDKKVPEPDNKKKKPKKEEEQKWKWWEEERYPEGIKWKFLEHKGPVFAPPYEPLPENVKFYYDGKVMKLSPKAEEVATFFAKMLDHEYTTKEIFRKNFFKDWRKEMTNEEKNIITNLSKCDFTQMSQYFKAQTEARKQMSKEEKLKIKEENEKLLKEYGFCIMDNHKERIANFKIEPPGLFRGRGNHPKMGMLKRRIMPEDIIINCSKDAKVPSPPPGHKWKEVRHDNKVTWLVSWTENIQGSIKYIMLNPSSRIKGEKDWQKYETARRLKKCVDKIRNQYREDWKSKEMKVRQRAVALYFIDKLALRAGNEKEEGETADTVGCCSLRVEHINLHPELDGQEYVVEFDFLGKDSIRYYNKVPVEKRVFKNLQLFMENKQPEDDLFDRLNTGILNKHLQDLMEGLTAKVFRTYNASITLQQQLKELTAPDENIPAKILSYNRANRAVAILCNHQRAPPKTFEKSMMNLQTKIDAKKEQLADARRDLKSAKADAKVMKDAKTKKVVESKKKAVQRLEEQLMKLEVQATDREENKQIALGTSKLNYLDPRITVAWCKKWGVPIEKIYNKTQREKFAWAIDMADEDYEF
As to the kind of experiment: hTopo I relaxation assay. The test is classed as biochemical. Conditions: compound at 1 μM, pHOT1 plasmid, agarose gel. The procedure: Indeed, as shown in Figure 3a (lanes 3 and 4), a clear band of the uncut plasmid DNA at the bottom of the gel is present. The uncut plasmid pHOT1, used as marker, is present in Figure 3a, lane 1. On the contrary, in the control reaction (only vehicle, Figure 3a, lane 2), it is possible to observe the presence of multiple bands corresponding to the relaxed plasmid DNA, used as substrate.
hTopo I relaxation assays were performed as indicated in the manufacturer’s protocol (TopoGEN, Port Orange, FL, USA) with some revisions. hTopo I relaxation assays were performed in a final volume of 20 μL: 0.25 μg of supercoiled pHOT1 in TE buffer [TE: 10 mM Tris-HCl (pH 7.5), 1 mM EDTA] was added to a solution containing water, 1× assay buffer (10 mM Tris-HCl (pH 7.9), 1 mM EDTA, 0.5 mM NaCl, 0.1% bovine serum albumin, 0.1 mM spermidine and 5% glycerol) and the tested compounds. The mix was incubated for 15 min at 37 °C. Then, the reaction was initiated by addition of recombinant hTopo I (2 U), incubated at 37 °C for 1 h and terminated by the addition of 5× stop buffer (5% sarkosyl, 25% glycerol, 0.125% bromophenol blue). The aqueous phase was loaded onto a 1% agarose gel containing 1× TAE buffer (diluted from50× buffer containing 242 g Tris base, 57.1 mL glacial acetic acid and 100 mL of 0.5 M EDTA) without ethidium bromide (EB). […]

For the next test, the target named is T2, hTopo II (Homo sapiens, UniProt P11388).
T2 construct: purchased TopoGEN
T2 sequence (P11388 whole entry): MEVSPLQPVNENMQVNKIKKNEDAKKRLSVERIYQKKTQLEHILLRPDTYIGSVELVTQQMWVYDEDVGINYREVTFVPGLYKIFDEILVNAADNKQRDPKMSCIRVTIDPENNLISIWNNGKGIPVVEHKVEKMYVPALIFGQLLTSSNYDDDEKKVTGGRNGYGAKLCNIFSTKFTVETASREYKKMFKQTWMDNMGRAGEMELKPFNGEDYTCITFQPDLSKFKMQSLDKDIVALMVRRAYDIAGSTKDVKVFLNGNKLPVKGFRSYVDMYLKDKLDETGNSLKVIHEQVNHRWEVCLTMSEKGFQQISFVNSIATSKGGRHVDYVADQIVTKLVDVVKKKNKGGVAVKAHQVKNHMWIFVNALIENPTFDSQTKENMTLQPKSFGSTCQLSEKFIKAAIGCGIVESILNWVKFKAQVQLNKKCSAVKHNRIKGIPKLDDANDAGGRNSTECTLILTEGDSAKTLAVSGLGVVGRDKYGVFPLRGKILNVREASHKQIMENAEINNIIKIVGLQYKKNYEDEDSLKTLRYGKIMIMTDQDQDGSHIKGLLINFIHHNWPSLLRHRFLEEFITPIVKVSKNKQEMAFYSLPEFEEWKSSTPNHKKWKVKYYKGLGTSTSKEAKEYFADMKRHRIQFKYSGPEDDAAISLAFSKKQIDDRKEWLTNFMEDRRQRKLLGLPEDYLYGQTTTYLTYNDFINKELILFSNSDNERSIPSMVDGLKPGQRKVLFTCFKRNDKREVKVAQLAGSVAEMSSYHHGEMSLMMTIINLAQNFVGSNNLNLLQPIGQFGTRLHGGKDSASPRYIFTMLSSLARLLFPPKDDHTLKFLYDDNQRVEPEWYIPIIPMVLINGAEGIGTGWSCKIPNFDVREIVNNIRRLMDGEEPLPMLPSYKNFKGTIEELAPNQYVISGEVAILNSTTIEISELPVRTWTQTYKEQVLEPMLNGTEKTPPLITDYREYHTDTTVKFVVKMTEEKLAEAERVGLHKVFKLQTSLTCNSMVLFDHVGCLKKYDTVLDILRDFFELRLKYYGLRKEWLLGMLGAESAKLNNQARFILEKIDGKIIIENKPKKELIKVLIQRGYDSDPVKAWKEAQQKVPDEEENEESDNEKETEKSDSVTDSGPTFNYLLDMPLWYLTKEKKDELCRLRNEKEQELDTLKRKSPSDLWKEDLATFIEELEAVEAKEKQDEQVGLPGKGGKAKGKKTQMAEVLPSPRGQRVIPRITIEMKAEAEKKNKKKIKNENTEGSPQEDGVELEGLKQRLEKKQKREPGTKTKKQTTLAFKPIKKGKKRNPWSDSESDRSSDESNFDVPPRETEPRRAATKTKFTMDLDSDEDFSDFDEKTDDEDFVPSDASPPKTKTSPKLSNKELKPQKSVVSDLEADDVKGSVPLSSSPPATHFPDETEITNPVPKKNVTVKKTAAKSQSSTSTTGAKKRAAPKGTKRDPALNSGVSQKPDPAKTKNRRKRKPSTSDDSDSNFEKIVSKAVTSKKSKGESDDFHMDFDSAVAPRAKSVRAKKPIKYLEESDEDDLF
In words: hTopo II decatenation assay. Conditions: compound at 10 μM, kDNA, agarose gel. The test is classed as biochemical. The protocol: Next, we screened all the compounds for their activity against the hTopo II but, in this case, none of the tested compounds have been able to block the decatenation activity at the concentration of […] (Figure 3b, lanes 4 and 5). […] Indeed, two bands related to the DNA decatenation products are present at the bottom of the agarose gel, which denote the enzyme full activity, both in the control (only vehicle, Figure 3b, lane 3) and the tested compound reactions (Figure 3b, lanes 4–7).
Similarly, hTopo II decatenation assays were carried out, as indicated in the manufacturer’s procedures (TopoGEN, Port Orange, FL, USA) with some revisions.
hTopo II decatenation assays were performed in a final volume of 20 μL: 0.3 μg of kinetoplast DNA (kDNA) was added to a solution containing 1× assay buffer (50 mM Tris-HCl, pH of 8, 150 mM NaCl, 10 mM MgCl2, 0.5 mM Dithiothreitol (DTT), 30 μg/mL bovine serum albumin (BSA), 1 mM ATP) and the tested compounds. The mix was incubated for 15 min at 37 °C. Then, the reaction was started by adding 3 U of hTopo II and incubating at 37 °C for 1 h. Then, 5× stop buffer was added and the samples were treated as described in the previous paragraph. The aqueous phase was loaded on a 1% agarose gel containing 1× TAE buffer with EB (0.5 μg/mL) and visualized using an UV transilluminator.

The test system of another test is MCF-10A cells. In words: MTT assay, MCF-10A normal cell viability. The test is classed as cell-based, human. Particulars: 72 h, non-malignant breast epithelial cells, mean ± standard deviation. The procedure: (§1) The inhibition of cancer cell growth exerted by the five considered compounds (1–5) has been evaluated in vitro against two models of breast cancer, namely the estrogen receptor positive (ER+) MCF-7 and the triple negative MDA-MB-231 human breast cancer cells (lacking ER, PR, and HER-2/Neu amplification), together with the normal counterpart, namely the non-malignant breast epithelial cells MCF-10A. […] Moreover, no effects were recorded against the MCF-7 cells, at least until the concentration of 100 μM. […] Thus, the two lead compounds were chosen for subsequent studies aiming at individuating the molecular mechanisms underlying the observed anticancer activity.
(§2) MTT assays (Sigma Aldrich (St.Louis, MO, USA)) were employed to evaluate the in vitro anticancer activities of all the studied compounds, as previously described. The compounds were tested at different concentrations (0.1-1-10-25-50-100 μM) for 72 h. The IC50 values were calculated from the percent (%) of control using GraphPad Prism 9 (GraphPad Software, La Jolla, CA, USA).
(Tetrazolium dyes change colour on reduction, which living cells bring about.)

Another test has as its system MCF-7 cells. As to the kind of experiment: MTT assay, MCF-7 cell viability. The test is classed as cell-based. Particulars: Homo sapiens, MCF7, 72 h, mean ± standard deviation. The protocol:
as §2

The subject of a further test is MDA-MB-231 cells. In words: MTT assay, MDA-MB-231 cell viability. In kind it is cell-based. Conditions: Homo sapiens, 72 h, mean ± standard deviation. The protocol:
as §1, §2

Take `Cc1ccc(C)c2c1c1cc(B(O)O)ccc1n2C(=O)OC(C)(C)C` [Compound 3]: the “Inhibition of hTopo I supercoiling relaxing activity” value on hTopo I is “totally inhibited”. In addition, the “Inhibition of hTopo II decatenation activity” value at hTopo II is reported as “no inhibitory activity”. In addition, the IC50 in the test on MCF-10A cells was 51.9 ± 0.88 µM; in the test with MCF-10A cells (Homo sapiens, MCF-10A) it was around 52 µM; in the test with MCF-7 cells, 27.6 ± 0.71 µM; in the test on MDA-MB-231 cells, 1.44 ± 0.97 µM.
As for `Cc1ccc(C)c2c1c1cc(O)ccc1n2C(=O)OC(C)(C)C` [Compound 4], the “Inhibition of hTopo I supercoiling relaxing activity” value at hTopo I is “totally inhibited”. For the same compound, the “Inhibition of hTopo II decatenation activity” value at hTopo II is listed as “no inhibitory activity”. Moreover, the IC50 was above 100 µM in the test with MCF-10A cells (Homo sapiens, MCF-10A); 19.8 ± 1.12 µM in the test on MCF-7 cells; 0.73 ± 0.74 µM in the test on MDA-MB-231 cells.

A word on the IC50: it is the point on the concentration scale where inhibition reaches its midpoint. High values mean weaker potency in that assay, low ones greater potency in that assay.
